Experimental data published in patent publication US7232673B2, “Antimicrobial protein from Lyophyllum shimeji” (Japan Tobacco Inc., priority 1999, dated 2007).
Values belong to the molecule of their own block, whether it stands above or below them.

Experiments:
Assay in all cases: Pyranose oxidase activity (properties of pyranose oxidase, method of Nishimura et al. 1996)
[1] = target: T1, Lyophyllum shimeji antimicrobial protein (pyranose oxidase), native, purified MonoQ fractions Nos. 42-44 containing the 65 kDa + 70 kDa proteins, SEQ ID NO:2 (Lyophyllum shimeji, UniProt Q75ZP8); assay type: biochemical; details: result in words
T1 construct: MonoQ fractions 42-44 holding the 70 kDa precursor (1-618) and 65 kDa mature form (76-618), both from a single gene; not the His-tagged E. coli product
T1 sequence (Q75ZP8 76-618): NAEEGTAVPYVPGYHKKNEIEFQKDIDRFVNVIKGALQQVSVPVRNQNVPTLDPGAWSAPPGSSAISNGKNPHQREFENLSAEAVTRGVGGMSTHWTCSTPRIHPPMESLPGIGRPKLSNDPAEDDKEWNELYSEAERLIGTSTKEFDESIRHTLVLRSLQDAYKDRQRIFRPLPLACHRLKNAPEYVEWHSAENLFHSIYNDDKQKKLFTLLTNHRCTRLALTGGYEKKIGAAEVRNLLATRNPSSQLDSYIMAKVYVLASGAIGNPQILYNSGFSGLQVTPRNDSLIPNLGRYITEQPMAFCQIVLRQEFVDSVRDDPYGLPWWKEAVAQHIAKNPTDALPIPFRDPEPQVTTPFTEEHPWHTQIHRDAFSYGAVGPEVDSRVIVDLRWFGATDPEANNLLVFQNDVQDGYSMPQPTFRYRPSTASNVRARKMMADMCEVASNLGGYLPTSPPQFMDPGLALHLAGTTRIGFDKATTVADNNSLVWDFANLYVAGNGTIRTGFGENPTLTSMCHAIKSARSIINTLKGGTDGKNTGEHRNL
Experimental: (§1) The amino acid sequences thus determined were searched for in a data base. […] Thus, the pyranose oxidase activity of each MonoQ fraction was measured in accordance with the method of Nishimura et al. (1996). […] Accordingly, it is estimated that the antimicrobial activity would be derived from hydrogen peroxide formed during the oxidation of glucose in the medium by this enzyme. Next, the fractions containing both of the 65 kDa and 70 kDa proteins (FIG. 2 Nos. 42–44) were exclusively concentrated and properties of pyranose oxidase were analyzed. […] The amount of the enzyme proteins (65 kDa+70 kDa) was determined by SDS-PAGE silver staining.

[2] = substrate: OC[C@H]1OC[C@H](O)[C@@H](O)[C@@H]1O; assay type: biochemical, Lyophyllum shimeji; details: other: native L. shimeji enzyme protein (65 kDa+70 kDa), table footnote (activity unit): pH 7.0, 37° C.
Experimental: as §1

[3] = substrate: OC[C@H]1OC(O)[C@H](O)[C@@H](O)[C@@H]1O; assay type: biochemical, Lyophyllum shimeji; details: other: native L. shimeji enzyme protein (65 kDa+70 kDa), table footnote (activity unit): pH 7.0, 37° C.
Experimental: as §1

Km values to 1,5-anhydroglucitol [1]: low
Molecule: OC[C@H]1OC[C@H](O)[C@@H](O)[C@@H]1O [1,5-Anhydroglucitol]

Km values to glucose [1]: low
Molecule: OC[C@H]1OC(O)[C@H](O)[C@@H](O)[C@@H]1O (stereo partly shown) [Glucose]

B1: Lyophyllum shimeji antimicrobial protein (pyranose oxidase), native, purified MonoQ fractions Nos. 42-44 containing the 65 kDa + 70 kDa proteins, SEQ ID NO:2 … (protein)
chain: T1 sequence (Q75ZP8 76-618)
notes: MonoQ fractions 42-44 holding the 70 kDa precursor (1-618) and 65 kDa mature form (76-618), both from a single gene; not the His-tagged E. coli product
Km [2]: 6.5 mM
Km [3]: 0.50 mM
